Assay results published in US11207285B2, “Diabetes treatment regimens using alpha, alpha-substituted long-chain amphipathic carboxylates” (SYNDROMEX LTD., priority 2016, dated 2021).

Experiments:
[1] = system: fully differentiated 3T3L1 adipocytes; experiment: glucose uptake in 3T3L1 adipocytes; type: cell-based; settings: insulin as positive control
Procedure: (§1) The compound 2,2,15,15-tetramethylhexadecane-1,16-dioic acid (also designated M16αα), and also the compounds […] (M18αα) and 2,2,19,19-tetramethyl-[…]-1,20-dioic acid (M20αα), were tested for their effect on glucose uptake and production, and the expression of glucose- and lipid-related genes in in vitro models. […] Inhibition of glucose production was tested in HepG2 human liver cells.

HepG2 human liver cells = experiment: inhibition of glucose production in HepG2 cells; type: cell-based
Procedure: as §1

[2] = system: cultured human HepG2 liver cells; experiment: inhibition of lipoprotein production in HepG2 cells; type: cell-based
[3] = system: genes that control liver gluconeogenesis and lipid synthesis; experiment: expression of glucose- and lipid-related genes in in vitro models; type: cell-based
Procedure: as §1

[4] = system: C57BL/KsJ (db/db) Spontaneous T2D mice; experiment: glucose lowering effect in db/db mice; type: in vivo; settings: once daily oral 30 mg/kg
Procedure: In addition, the glucose lowering effect of the above three compounds M16αα, M18αα and M20αα was tested in C57BL/KsJ (db/db) Spontaneous T2D mice, which serve as a model for T2D. These animals are characterized by hyperphagia, obesity, hyperglycemia and insulin resistance. The mice were treated once daily by oral administration of the tested compound at 30 mg/kg.

half-life in rats = settings: rat, in vivo, read-out: half-life (T1/2) (converted)
Text: (§2) The half-life (T1/2) of Medica compounds in humans differs considerably from their half-life in model animals. […] This difference in half-life could not be expected, and is of considerable significance when designing a new treatment protocol for humans.

half-life in dogs = settings: dog, in vivo, read-out: half-life (T1/2) (converted)
Text: as §2

half-life in humans = type: in vivo; settings: human, in vivo, read-out: half-life (T1/2) (converted)
Text: as §2

Compound | glucose uptake [1] | hepatic glucose production (HepG2 human liver cells) | lipoprotein production [2] | expression of genes that control liver gluconeogenesis and lipid synthesis [3] | blood glucose levels [4] | serum insulin levels [4] | serum triglyceride levels [4] | half-life (half-life in rats) [h] | half-life (half-life in dogs) [h] | half-life (half-life in humans) [h]
CC(C)(CCCCCCCCCCCCCCC(C)(C)C(=O)O)C(=O)O [M18αα, 2,2,17,17-tetramethylocta-decane-1,18-dioic acid] | increase glucose uptake | significant or full inhibition | significant or full inhibition | effective in inhibiting | significantly decrease | significantly decrease | significantly decrease |  |  | 
CC(C)(CCCCCCCCCCCCCCCCC(C)(C)C(=O)O)C(=O)O [M20αα] | increase glucose uptake | significant or full inhibition | significant or full inhibition | effective in inhibiting | significantly decrease | significantly decrease | significantly decrease |  |  | 
CC(C)(CCCCCCCCCCC(C)(C)CC(=O)O)CC(=O)O [Medica16-ββ, 3,3,14,14-tetramethylhexadecanedioic acid, reference compound] |  |  |  |  |  |  |  | 2.7 ± 0.4 | 25.8 | 31.5 ± 12.8
